Data set [1] relates to HepG2 cells. As to the kind of experiment: MTT antiproliferative assay, HepG2. Format: cell-based, human. The note with it: 72 h MTT assay, Mean ± SD. Here is the method:
(§1) All cells were incubated at 37 °C by DMEM complete medium (containing 1% penicillin−streptomycin and 12% FBS) in 5% CO2 incubator. 2–5 × 10^3 cells were cultured in 96‐well plates and each well contained 100 µL complete medium. OXA was dissolved in water, and all other complexes were dissolved in DMF. After cells adhered in the wells, different concentrations of complexes were diluted in 100 µL complete medium and added in the wells. The final volume in the each well was 200 µL and the content of DMF was maximum 0.5%. After 72 h incubation, the antiproliferative activity was tested by MTT assay.
Background: Tetrazolium assays rely on reduction of a dye to a coloured formazan, in cell work by metabolically active cells.

For data set [2], the system named is Hepa1-6 cells. The data set is described as follows: MTT antiproliferative assay, Hepa1-6. Format: cell-based. The conditions noted are these: Mus musculus, Hepa1-6; 72 h MTT assay, Mean ± SD. As for the experimental part:
as §1

The test system of data set [3] is 293T cells. The data set is described as follows: MTT assay, normal kidney cell line 293T. It counts as cell-based. The conditions noted are these: Homo sapiens, HEK-293T; 72 h MTT assay, Mean ± SD. As for the experimental part:
as §1

Data set [4] in a line: Stability analysis by 1H NMR. Format: physicochemical. As for the experimental part:
5 mM of complex 6d was incubated with DMSO‐d6 or the mixed solution (DMSO‐d6 /D2O = 9:1) or the same mixed solution with 5 mM of GSH for different times (0 – 72 h), and the ^1H NMR spectra were acquired. The stability of AF was determined by the same method.

Data set [5] relates to HIF-1α. The data set is described as follows: Western blot of HIF-1α in HepG2. It counts as cell-based, human. The note with it: HepG2, 24 h. As for the experimental part:
(§2) HepG2 cells were incubated in 6 cm culture dishes and treated with different complexes. The treated cells were lysed with lysis buffer (RIPA:PMSF:phosphatase inhibitor:protease inhibitor = 100:1:1:1). The lysed cells were further broken by sonication, and proteins were isolated by centrifugation. The protein concentrations were detected by BCA assay. 10% SDS PAGE gel was usually applied to separate the different kDa of proteins, and more than 200 kDa of proteins were separated using 8% SDS PAGE gel. After seperation, proteins were transferred onto polyvinylidene difluoride (PVDF) membranes. The target proteins were labeled by various specific primary antibodies at 4 °C overnight. Then, the membranes were treated with anti‐rabbit or anti‐mouse secondary antibody for 2 h. Tris buffered saline with tween 20 (TBST) was applied to wash the membranes after each operation above. The target proteins’ bands were detected by the enhanced chemiluminescence (ECL) procedure.

Data set [6] concerns phosphorylated Akt. As to the kind of experiment: Western blot of phosphorylated Akt in HepG2. Format: cell-based, human. The note with it: HepG2, 24 h; GLA at 8 µM. As for the experimental part: as §2
The subject of data set [7] is MAPK pathway (phosphorylated MEK1/2 and ERK1/2). As to the kind of experiment: Western blot of MAPK pathway in HepG2. Format: cell-based, human. The conditions noted are these: HepG2, 24 h. As for the experimental part: as §2
Data set [8] has as its system PD-L1. As to the kind of experiment: PD-L1 expression in HepG2 (western blot, immunofluorescence, flow cytometry). Format: cell-based, human. The conditions noted are these: HepG2, 24 h. As for the experimental part: as §2
5 × 10^4 HepG2 cells were treated with complexes in 24‐well plates for 24 h. Subsequently, cells were fixed with 4% paraformaldehyde. Various specific antibodies were added for incubation at 4 °C overnight after cells were permeabilized with Triton X‐100 (except for membrane proteins) and blocked with BSA. Then, the cells were incubated with fluorescently‐labeled secondary antibodies in darkness for 2 h. After that, DAPI was added to stain nuclear in darkness. PBS was applied for washing after each operation above (Tris buffered saline (TBS) was applied for washing if phosphorylated protein was analyzed). The cell images were captured by the fluorescence microscopy.
4 × 10^5 HepG2 cells were incubated in 6‐well plates, and complexes were added in the wells. The cells were collected after incubation, and the treated cells were labeled with probes or fluorescently‐labeled antibodies. A flow cytometer was applied to analyze the labeled cells.

Data set [9] has as its system immune cells in Hepa1-6 tumor and spleen tissue. As to the kind of experiment: In vivo immune cell and marker analysis (flow cytometry, immunofluorescence, immunohistochemistry). On the set-up: species or system C57BL/6 mice. The conditions noted are these: for DC maturation in spleen and tumor tissues / macrophage polarization in tumor: flow cytometry and immunofluorescence; for T lymphocyte infiltration in tumor: flow cytometry and immunohistochemistry; for MDSC infiltration in tumor / Treg infiltration in tumor (Foxp3): vs model group, 13 days. A general note: A flow cytometer gives signals particle by particle.

The test system of data set [10] is Hepa1-6 tumors. As to the kind of experiment: In vivo antitumor assay, Hepa1-6 tumors. More on the design: species or system C57BL/6 mice. The note with it: after 13 days; 6d and OXA 5 mg kg^−1, GLA 10 mg kg^−1, i.p. every two days.
A short description of data set [11]: In vivo tolerability (body weight, survival, organ H&E). As for the experimental part: All mice were 6–8 weeks old males and procured from Hangzhou Medical College, located in Hangzhou, China. […] 2 × 10^6 Hepa1‐6 cells in 100 µL DMEM were subcutaneously seeded in underarms of C57BL/6 mice. […] Meanwhile, the mice weights and tumor volume were recorded, and the calculation formula of tumor volume was Volume = Width^2 × Length/2. After 13 days, all mice were sacrificed for collection of tumors, hearts, livers, spleens, lungs and kidneys. Collagenase IV (1 mg mL^−1) and DNase I (1 µg mL^−1) were applied to digest a part of the tumor tissue into cell suspension, and lysis buffer was used to remove red blood cells. The prepared cells above were stained with antibodies (anti‐CD3e‐FITC, and anti‐CD8a‐PE; anti‐CD11c‐APC, anti‐CD80‐PE, and anti‐CD86‐FITC; anti‐CD45‐Percp, anti‐CD11b‐APC, and anti‐Ly‐6G/Ly‐6C(Gr‐1)‐FITC; anti‐CD11b‐APC, anti‐CD206‐PE, and CD86‐FITC). CD3^+CD8^+ T cells, CD80^+CD86^+ DCs, CD11b^+Gr‐1^+ MDSCs, CD206^−CD86^+ M1‐type macrophages and CD206^+CD86^− M2‐type macrophages were analyzed by flow cytometry. Then, another part of tumor tissues were fixed with 4% paraformaldehyde, embedded in paraffin, cut into slices and stained with antibodies for immunofluorescence and immunohistochemistry analysis. H&E stain assays were applied for all tissue samples.

On the set-up of data set [12]: method as in PMID 30146723. The note with it: antitumor activity; cited from earlier work.
The test system of data set [13] is MAPK pathway (phosphorylated MEK1/2 and ERK1/2). As to the kind of experiment: In vivo MAPK pathway in tumor tissue. The note with it: western blot, day 13. On the set-up: species or system C57BL/6 mice. (A western blot detects proteins with antibodies after separation by electrophoresis.)
The test system of data set [14] is PD-L1. As to the kind of experiment: In vivo PD-L1 expression in tumor tissue. More on the design: species or system C57BL/6 mice. The note with it: western blot, 13 days of treatment.
The nature of data set [15]: Metabolic stability in whole blood. The note with it: mouse.

For the compound `CC1(C)C=Cc2c(ccc3c2OC[C@@H](c2ccc(OCCCCCBr)cc2OCCCCCBr)C3)O1` [3b], the IC50 – broadly, the concentration that gives 50% inhibition – in [1] (Homo sapiens, HepG2) is more than 20 µM; in data set [2], more than 20 µM; in data set [3] it was more than 20 µM.
As to `CC(=O)OC[C@H]1O[C@@H]([S-])[C@H](OC(C)=O)[C@@H](OC(C)=O)[C@@H]1OC(C)=O.CCP(CC)CC.[Au+]` [AF, auranofin, reference compound], the “stability by 1H NMR” value in [4] is on record as “remained stable”. Also, the “time after which 1H NMR spectra began to change / showed new peaks” value in data set [4] (5 mM complex, DMSO-d6/D2O 9:1 containing GSH (5 mM)) is 2 h. Besides, the “HIF-1α expression (western blot)” value in [5] is given as “promoted”. The “Akt phosphorylation (western blot)” value in [6] is “inhibited Akt phosphorylation”. The compound further registered an IC50 in data set [1] of 3.54 ± 0.34 µM. Besides, in [7], the “ERK1/2 phosphorylation (western blot, Figure S49)” value was “significantly enhancing ERK1/2 phosphorylation”. Also, the “PD-L1 expression (western blot)” value in [8] is listed as “upregulation”.
For the compound `CC1(C)C=Cc2c(ccc3c2OC[C@@H](c2ccc(O)cc2O)C3)O1` [GLA, glabridin], in data set [9], the “DC maturation in spleen and tumor tissues” value is listed as “induced DC maturation”; the “macrophage polarization in tumor” value is on record as “significantly promoted M1‐type macrophage polarization”; the “T lymphocyte infiltration in tumor” value is reported as “did not enhance T lymphocyte infiltration”; the “MDSC infiltration in tumor” value is “reducing the infiltration”. Moreover, the “Treg infiltration in tumor (Foxp3)” value in [9] is on record as “reducing the infiltration”. Moreover, in data set [9] (immunofluorescence), the “Arg-1 expression in tumor tissue” value is on record as “downregulation” and the “CRT exposure in tumor tissue” value is reported as “did not induce CRT exposure”. Further, the “Akt phosphorylation (western blot)” value in data set [6] is reported as “did not significantly affect Akt phosphorylation”. Besides, the IC50 in [1] (Homo sapiens, HepG2) stood at 39.5 ± 4.68 µM. In [10], the “tumor growth vs model group” value is recorded as “did not show an obvious effect on tumor growth”. For the same compound, the “effect on mice body weight” value in [11] (6d and OXA 5 mg kg^−1, GLA 10 mg kg^−1, i.p. every two days, OXA after nine days) is reported as “no significant effect”. In addition, in data set [11] (heart, liver, spleen, lung, kidney, day 13), the “organ tissue damage (H&E staining)” value is “did not cause noticeable damage to organ tissues”. Moreover, the “suggested minimum effective dose” value in [12] was 10 mg/kg. Moreover, in data set [13], the “MAPK pathway activation (phosphorylation of MEK1/2 and ERK1/2) in tumor tissue” value is listed as “significantly inhibited”. For the same compound, the IC50 in data set [2] came out at 37.6 ± 1.73 µM. In data set [8], the “PD-L1 expression (western blot)” value is “did not exhibit this effect”. This compound displayed an IC50 in [3] of 43.4 ± 4.47 µM.
On to `O=C1[O][Pt]2([NH][C@@H]3CCCC[C@H]3[NH]2)[O]C1=O` [OXA, oxaliplatin], for which the “PD-L1 expression in tumor tissue” value in data set [14] was “upregulated”. In [9], the “DC maturation in spleen and tumor tissues” value is “induced DC maturation”; the “macrophage polarization in tumor” value was “promoted M2‐type polarization”; the “T lymphocyte infiltration in tumor” value is reported as “promoted T lymphocyte infiltration”; the “MDSC infiltration in tumor” value is “higher level of MDSC infiltration”. Also, the “Treg infiltration in tumor (Foxp3)” value in data set [9] was “higher number of infiltrated Tregs”. Besides, in data set [9] (immunofluorescence), the “Arg-1 expression in tumor tissue” value was “promoted the expression” and the “CRT exposure in tumor tissue” value is recorded as “promoted CRT exposure”. In addition, in data set [9] (immunofluorescence, OXA vs model group, 6d vs OXA group), the “GzmB expression in tumor tissue” value is listed as “did not increase obviously”. The IC50 in data set [1] was 4.08 ± 0.97 µM. The “tumor growth vs model group” value in [10] was “significant tumor growth inhibition”. Besides, the “MAPK pathway activation (phosphorylation of MEK1/2 and ERK1/2) in tumor tissue” value in [13] is given as “promoted the phosphorylation”. In addition, the “phosphorylation of MEK1/2 and ERK1/2 (western blot)” value in data set [7] was “no effect”. For the same compound, in [8], the “PD-L1 expression (western blot)” value is listed as “did not affect”.
For the compound `CC(C)[N+](C)(CCOC(=O)C1c2ccccc2Oc2ccccc21)C(C)C` [Propantheline bromide], in [15], the “-k” value came to 0.0216, the half-life (commonly the time needed for the level to fall by half in the phase considered) came to 32.1 min, the fraction remaining (commonly the share of the starting amount still present when the sample was taken) at 0 h worked out at 100% and the fraction remaining at 5 min stood at 88.5%. In data set [15], this compound displayed a share remaining at 0.25 h of 66%, an amount remaining at 0.5 h of 47.5%, a share remaining at 1 h of 21.8% and an amount remaining at 2 h of 7.63%.

Source of the values: paper PMC12591170, “Glabridin‐Gold(I) Complex as a Novel Immunomodulatory Agent Targeting TrxR and MAPK Pathways for Synergistic Enhancement of Antitumor Immunity” (Advanced Science, 2025).
